Assays:
Format in all cases: in vivo
Veronica persica (VERPE) [1] = test: B. Herbicidal post-emergence efficacy, VERPE
Description: (§1) Seeds of mono- and dicotyledonous weed plants were placed in plastic pots in sandy loam soil (doubly sown with in each case one species of mono- or dicotyledonous weed plants per pot), covered with soil and cultivated in a greenhouse under controlled growth conditions. 2 to 3 weeks after sowing, the test plants were treated at the one-leaf stage. The compounds of the invention, formulated in the form of wettable powders (WP) or as emulsion concentrates (EC), were applied onto the green parts of the plants as aqueous suspension or emulsion with addition of 0.5% additive at a water application rate of 600 liters per hectare (converted). After the test plants had been kept in the greenhouse under optimum growth conditions for about 3 weeks, the activity of the preparations was rated visually in comparison to untreated controls.
(§2) For example, • 100% efficacy=plants have died, • 0% efficacy=like untreated control plants
(§3) Tables B1a to B12c below show the effects of selected inventive compounds of the general formula (I) according to table 1 on various harmful plants at an application rate corresponding to 1280 g/ha or less, which were obtained by the experimental procedure mentioned above.

Stellaria media (STEME) [2] = test: B. Herbicidal post-emergence efficacy, STEME
Description: as §1, §2, §3

[3] = tested on: Amaranthus retroflexus (AMARE); test: B. Herbicidal post-emergence efficacy, AMARE
Description: as §1, §2, §3

Kochia scoparia (KCHSC) [4] = test: A. Herbicidal pre-emergence efficacy, KCHSC
Source text: (§4) Seeds of mono- and dicotyledonous weed plants were placed in plastic pots in sandy loam soil (doubly sown with one species each of mono- or dicotyledonous weed plants per pot) and covered with soil. The compounds of the invention, formulated in the form of wettable powders (WP) or as emulsion concentrates (EC), were then applied onto the surface of the covering soil as aqueous suspension or emulsion with addition of 0.5% additive at a water application rate of 600 liters per hectare (converted). After the treatment, the pots were placed in a greenhouse and kept under good growth conditions for the test plants. After about 3 weeks, the efficacy of the preparations was scored visually in comparison with untreated controls as percentages.
(§5) For example, • 100% efficacy=plants have died, • 0% efficacy=like untreated control plants.
(§6) Tables A1a to A12c below show the effects of selected compounds of the general formula (I) according to table 1 on various harmful plants at an application rate corresponding to 1280 g/ha or less, which were obtained by the experimental procedure mentioned above.

[5] = tested on: Abutilon theophrasti (ABUTH); test: B. Herbicidal post-emergence efficacy, ABUTH; conditions: rated visually after about 3 weeks
Description: as §1, §2, §3

Kochia scoparia (KCHSC) [6] = test: B. Herbicidal post-emergence efficacy, KCHSC; conditions: for Post-emergence efficacy against KCHSC: 1280 g/ha; for Post-emergence efficacy against KCHSC in %: rated visually after about 3 weeks
Description: as §1, §2, §3

[7] = tested on: Amaranthus retroflexus (AMARE); test: A. Herbicidal pre-emergence efficacy, AMARE
Source text: as §4, §5, §6

Poa annua (POAAN) [8] = test: B. Herbicidal post-emergence efficacy, POAAN; conditions: 1280 g/ha
Description: as §1, §2, §3

Stellaria media (STEME) [9] = test: A. Herbicidal pre-emergence efficacy, STEME
Source text: as §4, §5, §6

[10] = tested on: Echinochloa crus-galli (ECHCG); test: A. Herbicidal pre-emergence efficacy, ECHCG; conditions: 1280 g/ha; scored visually after about 3 weeks vs untreated controls
Source text: as §4, §5, §6

Poa annua (POAAN) [11] = test: A. Herbicidal pre-emergence efficacy, POAAN
Source text: as §4, §5, §6

Setaria viridis (SETVI) = test: A. Herbicidal pre-emergence efficacy, SETVI
Source text: as §4, §5, §6

[12] = tested on: Abutilon theophrasti (ABUTH); test: A. Herbicidal pre-emergence efficacy, ABUTH; conditions: 1280 g/ha; scored visually after about 3 weeks vs untreated controls
Source text: as §4, §5, §6

[13] = tested on: Digitaria sanguinalis (DIGSA); test: A. Herbicidal pre-emergence efficacy, DIGSA; conditions: scored visually after about 3 weeks vs untreated controls
Source text: as §4, §5, §6

Veronica persica (VERPE) [14] = test: A. Herbicidal pre-emergence efficacy, VERPE; conditions: 1280 g/ha
Source text: as §4, §5, §6

[15] = tested on: Echinochloa crus-galli (ECHCG); test: B. Herbicidal post-emergence efficacy, ECHCG; conditions: rated visually after about 3 weeks
Description: as §1, §2, §3

[16] = pre-emergence, dosage 1280 g/ha

SMILES | Post-emergence efficacy against VERPE (Veronica persica (VERPE) [1]; 320 g/ha) [%] | Post-emergence efficacy against VERPE (Veronica persica (VERPE) [1]; 1280 g/ha) [%] | Post-emergence efficacy against STEME (Stellaria media (STEME) [2]; 1280 g/ha) [%] | Post-emergence efficacy against AMARE ([3]; 1280 g/ha) [%] | Pre-emergence efficacy against KCHSC (Kochia scoparia (KCHSC) [4]; [16]) [%] | Post-emergence efficacy against ABUTH in % ([5]; 1280 g/ha) [%] | Post-emergence efficacy against KCHSC (Kochia scoparia (KCHSC) [6]) [%] | Pre-emergence efficacy against AMARE in % ([7]; 1280 g/ha) [%] | Post-emergence efficacy against POAAN (Poa annua (POAAN) [8]) [%] | Pre-emergence efficacy against STEME (Stellaria media (STEME) [9]; dosage 1280 g/ha) [%] | Post-emergence efficacy against VERPE (Veronica persica (VERPE) [1]; 80 g/ha) [%] | Pre-emergence efficacy against ECHCG [10] [%] | Post-emergence efficacy against AMARE ([3]; 80 g/ha) [%] | Post-emergence efficacy against AMARE ([3]; 320 g/ha) [%] | Pre-emergence efficacy against POAAN (Poa annua (POAAN) [11]; dosage 1280 g/ha) [%] | Pre-emergence efficacy against SETVI (Setaria viridis (SETVI); dosage 1280 g/ha) [%] | Post-emergence efficacy against KCHSC in % (Kochia scoparia (KCHSC) [6]; 80 g/ha) [%] | Post-emergence efficacy against KCHSC in % (Kochia scoparia (KCHSC) [6]; 320 g/ha) [%] | Pre-emergence efficacy against AMARE in % ([7]; 320 g/ha) [%] | Pre-emergence efficacy against DIGSA ([13]; 1280 g/ha) [%] | also measured
O=S(=O)(CC(F)(F)F)Oc1ccccc1Oc1ncc(Cl)cn1 [Example I-4] | 90 | 100 | 90 | 90 | 100 | 90 | 90 | 100 | 90 |  |  |  |  |  |  |  |  |  |  |  | 
CCCCS(=O)(=O)Oc1c(OC)cccc1Oc1ncc(Cl)cn1 [Example I-17] |  |  |  |  |  |  |  |  |  | 90 |  |  |  |  |  |  |  |  |  |  | 
O=S(=O)(Oc1ccccc1Oc1ncc(Cl)cn1)C1CC1 [Example I-21] | 100 | 100 | 100 | 100 | 100 |  | 100 | 100 | 100 | 100 | 90 | 100 | 90 | 100 | 100 | 100 | 90 | 100 | 100 | 100 | Post-emergence efficacy against STEME (Stellaria media (STEME) [2]; 320 g/ha): 90%; Pre-emergence efficacy against POAAN (Poa annua (POAAN) [11]; dosage 320 g/ha): 100%; Pre-emergence efficacy against KCHSC (Kochia scoparia (KCHSC) [4]; 80 g/ha, scored visually after about 3 weeks vs untreated controls): 90%; Pre-emergence efficacy against KCHSC (Kochia scoparia (KCHSC) [4]; pre-emergence, dosage 320 g/ha): 100%; Pre-emergence efficacy against ABUTH [12]: 100%; Pre-emergence efficacy against STEME (Stellaria media (STEME) [9]; dosage 320 g/ha): 100%; Pre-emergence efficacy against AMARE in % ([7]; 80 g/ha): 100%; Pre-emergence efficacy against DIGSA ([13]; 320 g/ha): 100%; Pre-emergence efficacy against VERPE in % (Veronica persica (VERPE) [14]): 90%
O=S(=O)(CCCCl)Oc1ccccc1Oc1ccc(Cl)cn1 [Example I-27] | 90 | 90 | 90 | 100 | 100 |  | 90 | 90 |  | 90 |  | 90 |  | 90 | 90 | 100 |  |  | 90 | 100 | Pre-emergence efficacy against POAAN (Poa annua (POAAN) [11]; dosage 320 g/ha): 90%; Pre-emergence efficacy against SETVI (Setaria viridis (SETVI); dosage 320 g/ha): 100%; Pre-emergence efficacy against ABUTH [12]: 90%; Pre-emergence efficacy against DIGSA ([13]; 320 g/ha): 90%; Pre-emergence efficacy against VERPE in % (Veronica persica (VERPE) [14]): 90%
N#Cc1ccc(Oc2ccccc2OS(=O)(=O)CCCCl)nc1 [Example I-58] |  | 90 |  | 90 | 90 | 90 | 90 |  |  |  |  |  | 90 | 90 |  |  |  |  |  | 90 | Pre-emergence efficacy against ABUTH [12]: 90%
O=[N+]([O-])c1cnc(Oc2ccccc2OS(=O)(=O)CCCCl)c(F)c1 [Example I-61] |  | 90 | 90 | 90 |  |  | 90 |  |  |  |  | 100 | 90 | 90 |  |  |  | 90 |  |  | 
O=[N+]([O-])c1ccc(Oc2ccccc2OS(=O)(=O)CCCCl)nc1 [Example I-62] |  | 90 |  | 90 |  |  |  |  |  |  |  |  |  |  |  |  |  |  |  |  | 
O=S(=O)(CCCCl)Oc1ccccc1Oc1ccc(C(F)(F)F)cn1 [Example I-63] |  | 90 |  | 90 |  |  |  |  |  |  |  |  |  |  |  |  |  |  |  |  | 
O=S(=O)(CCCCl)Oc1ccccc1Oc1ncc(Cl)cc1F [Example I-64] | 90 | 90 | 90 | 90 | 90 | 90 | 90 | 100 | 90 | 90 | 90 | 100 | 90 | 90 | 100 | 100 | 90 | 90 | 90 | 100 | Post-emergence efficacy against ABUTH in % ([5]; 320 g/ha): 90%; Post-emergence efficacy against ECHCG in % ([15]; 1280 g/ha): 90%; Pre-emergence efficacy against DIGSA ([13]; 320 g/ha): 90%; Pre-emergence efficacy against VERPE in % (Veronica persica (VERPE) [14]): 100%
O=S(=O)(CCCCl)Oc1ccccc1Oc1ncc(Br)cc1F [Example I-65] |  | 90 | 90 | 90 |  | 90 |  | 100 |  |  |  |  |  | 90 | 90 |  |  |  |  | 90 | 
O=S(=O)(CCCC(F)(F)C(F)(F)F)Oc1c(Br)cccc1Oc1ncc(Cl)cn1 [Example I-67] | 100 | 100 | 100 | 100 | 100 | 100 | 100 | 100 | 100 |  | 90 |  | 100 | 100 |  | 100 | 90 | 100 | 100 | 90 | Post-emergence efficacy against STEME (Stellaria media (STEME) [2]; 320 g/ha): 100%; Post-emergence efficacy against ABUTH in % ([5]; 80 g/ha): 90%; Post-emergence efficacy against ABUTH in % ([5]; 320 g/ha): 90%; Pre-emergence efficacy against VERPE in % (Veronica persica (VERPE) [14]): 100%
O=S(=O)(CC1CC1(Cl)Cl)Oc1c(Br)cccc1Oc1ncc(Cl)cn1 (stereo not shown) [Example I-77] | 100 | 100 | 90 | 100 |  | 100 | 100 | 100 |  | 90 | 100 |  | 100 | 100 | 100 | 100 | 90 | 90 | 100 | 100 | Pre-emergence efficacy against POAAN (Poa annua (POAAN) [11]; dosage 320 g/ha): 100%; Pre-emergence efficacy against SETVI (Setaria viridis (SETVI); dosage 320 g/ha): 90%; Post-emergence efficacy against ABUTH in % ([5]; 80 g/ha): 90%; Post-emergence efficacy against ABUTH in % ([5]; 320 g/ha): 90%; Post-emergence efficacy against ECHCG in % ([15]; 320 g/ha): 90%; Post-emergence efficacy against ECHCG in % ([15]; 1280 g/ha): 100%; Pre-emergence efficacy against DIGSA ([13]; 320 g/ha): 90%
O=S(=O)(CC=C(Cl)Cl)Oc1c(Br)cccc1Oc1ncc(Cl)cn1 [Example I-84] | 100 | 100 | 100 | 100 | 90 | 90 | 100 | 100 |  |  | 100 |  | 90 | 100 |  | 100 |  | 90 | 90 |  | 

— patent US20240174618A1, “SUBSTITUTED (2-HETEROARYLOXYPHENYL)SULFONATES, SALTS THEREOF AND THEIR USE AS HERBICIDAL AGENTS” (Bayer Aktiengesellschaft, priority 2021, published 2024)
